# Measurements from US6469013B2, “Therapeutic compounds” (Parker Hughes Institute, priority 1998, dated 2002).
# What was measured:
# [1] = test system: BT20 (Breast Cancer); test: Methylcellulose clonogenic assay; assay type: cell-based
# Protocol: (§1) The antileukemic activity of compound 6 against clonogenic tumor cells was examined using a methylcellulose colony assay system (Uckun, F. M., et al., J. Exp. Med. 163: 347-368, 1986; Messinger, Y., et al., Clin Cancer Res. 4: 165-70, 1998). In brief, cells (10^5/ml in RPMI-10% FBS) were treated overnight at 37° C. with compound 6 at varying concentrations. After treatment, cells were washed twice, plated at 10^4 or 10^5 cells/ml in RPMI-10% FMS-0.9% methylcellulose in Petri dishes, and cultured for 7 days at 37° C. in a humidified 5% CO2 incubator. Subsequently, leukemic cell (or tumor cell) colonies were enumerated using an inverted phase-contrast microscope. The percent inhibition of colony formation was calculated using the following formula:
# (§2) % Inhibition=1−mean number of colonies in test culture×100 mean number of colonies in control culture
# [2] = test system: DAUDI (B-ALL); test: Methylcellulose clonogenic assay; assay type: cell-based
# Protocol: as §1, §2
# [3] = test system: HL-60 (AML); test: Methylcellulose clonogenic assay; assay type: cell-based; details: HL-60, 100 μM
# Protocol: as §1, §2
# [4] = test system: M24-MET (Melanoma); test: Methylcellulose clonogenic assay; assay type: cell-based
# Protocol: as §1, §2
# [5] = test system: MOLT-3 (T-ALL); test: Methylcellulose clonogenic assay; assay type: cell-based; details: MOLT-3, 100 μM
# Protocol: as §1, §2
# [6] = test system: RAMOS (B-ALL); test: Methylcellulose clonogenic assay; assay type: cell-based
# Protocol: as §1, §2
# [7] = test system: SQ20B (Squamous Carcinoma); test: Methylcellulose clonogenic assay; assay type: cell-based
# Protocol: as §1, §2
# [8] = test system: skh-1 mice; test: Acute UVB skin inflammation: skinfold thickness, morphology, histology; assay type: in vivo, mouse; details: 48 h post UVB; UVB vehicle 3-5, normal 2-3
# Text: A bank of 8-FSX24T12/HO/UVB lamps (National Biological Corporation, Twinsburg, Ohio) that emits light predominantly in the UVB range, 280-320 nm was used to irradiate mice and cell cultures. The irradiance of UVB lamps was always measured before irradiation using a UVB meter (model—500C obtained from National Biological Corporation, Twinsburg, Ohio). The dose of UVB light used to irradiate cultures was 25 mj/cm^2. Anesthetized mice received UVB radiations to a 2.0 cm^2 area on their dorsal surface. This area was painted either with the test compound (1.5 mg/cm^2) in drug receiving mice, or with vehicle in control mice fifteen minutes before irradiation. The distance between UVB lamps and surface receiving irradiation was 20 cm. The final radiation dose received by skh-1 hairless mice was 250 mj/cm^2 which is approximately seven times higher than the minimal erythema dose (MED) (17) in these mice. […]
# Morphological appearance of the UVB irradiated skin was monitored visually and compared with the control mice skin. Skinfold thickness of the dorsal surface of the mice was recorded before, and everyday after UVB exposure for five days with a digital thickness gauge (Mitutoyo, So. Plainfield, N.J.) which measures thickness in 0-10 mm range with an accuracy of 0.015 mm. […]
# [9] = test system: NOD females; test: Spontaneous diabetes in NOD females (incidence, IPGTT, insulitis); assay type: in vivo, mouse
# Protocol: Mice were monitored for diabetes development by testing blood glucose from 10 wk of age by One Touch Profile diabetes tracking system, as described above.
# Intraperitoneal glucose tolerance test (IPGTI) was performed in the group of non-diabetic WHI-P131-treated and vehicle-treated control NOD females on the end of experimental period (25 wk of age of NOD mice). Mice were fasted for 10 hours, and the glucose solution (1.5 g/kg body weight) was injected i.p. Before and after injection of glucose, blood samples were taken and blood glucose levels were measured (as described above) at 0, 30, 60 and 120 min time points.
# The group of control and WHI-P131-treated non-diabetic NOD females was sacrificed at the end of experimental period, at 25 wksof age, and characteristic histopathologic lesion of islets (insulitis) was evaluated in each mouse scoring at least 25 islets per mouse. Briefly, pancreas was removed, fixed in 10% formalin, parafin embedded, cut and stained with hematoxylin and eosin for light microscopic examinations.
compound,measurement,setting,value
"COc1cc2ncnc(Nc3ccc(O)cc3)c2cc1OC [WHI-P131, 4-(4′-hydroxyl-phenyl)-amino-6,7-dimethoxyquinazoline]",Mean No. of Colonies/10^5 Cells,"[1]; BT20, 10 μM","3298 (2940, 3656)"
same,Mean No. of Colonies/10^5 Cells,"[1]; BT20, 100 μM","2190 (1632, 2748)"
same,inhibition at 10 µM,"[1]; Homo sapiens, BT-20, BT20, 10 μM",0%
same,inhibition at 100 µM,"[1]; Homo sapiens, BT-20, BT20, 100 μM",18.2%
same,Mean No. of Colonies/10^5 Cells,"[2]; DAUDI, 0.3 μM","2030 (1700, 2360)"
same,Mean No. of Colonies/10^5 Cells,"[2]; DAUDI, 1 μM","2136 (1568, 2704)"
same,Mean No. of Colonies/10^5 Cells,"[2]; DAUDI, 3 μM","1406 (988, 1824)"
same,Mean No. of Colonies/10^5 Cells,"[2]; DAUDI, 10 μM","1149 (1054, 1244)"
same,Mean No. of Colonies/10^5 Cells,"[2]; DAUDI, 30 μM","29 (12, 46)"
same,EC50,"[2]; Homo sapiens, DAUDI cells, read-out: EC50, inhibition of clonogenic growth",18.8 µM
same,inhibition at 0.3 µM,"[2]; Homo sapiens, DAUDI, 0.3 μM",48.6%
same,inhibition at 1 µM,"[2]; Homo sapiens, DAUDI, 1 μM",45.9%
same,inhibition at 3 µM,"[2]; Homo sapiens, DAUDI, 3 μM",64.4%
same,inhibition at 10 µM,"[2]; Homo sapiens, DAUDI, 10 μM",70.9%
same,inhibition at 30 µM,"[2]; Homo sapiens, DAUDI, 30 μM",98%
same,Mean No. of Colonies/10^5 Cells,[3],"1 (1,1)"
same,inhibition at 100 µM,[3]; Homo sapiens,> 99.9%
same,Mean No. of Colonies/10^5 Cells,[4]; 0.3 μM,"312 (238, 386)"
same,Mean No. of Colonies/10^5 Cells,[4]; 1 μM,"287 (157, 418)"
same,Mean No. of Colonies/10^5 Cells,[4]; 3 μM,"390 (280, 500)"
same,Mean No. of Colonies/10^5 Cells,[4]; 10 μM,"301 (249, 353)"
same,Mean No. of Colonies/10^5 Cells,[4]; 30 μM,"599 (534, 664)"
same,inhibition at 0.3 µM,"[4]; Homo sapiens, M24met, 0.3 μM",0%
same,inhibition at 1 µM,"[4]; Homo sapiens, M24met, 1 μM",0%
same,inhibition at 3 µM,"[4]; Homo sapiens, M24met, 3 μM",0%
same,inhibition at 10 µM,"[4]; Homo sapiens, M24met, 10 μM",0%
same,inhibition at 30 µM,"[4]; Homo sapiens, M24met, 30 μM",0%
same,inhibition at 100 µM,[5]; Homo sapiens,> 99.9%
same,Mean No. of Colonies/10^5 Cells,[5],"1 (1, 1)"
same,Mean No. of Colonies/10^5 Cells,[6]; 30 μM,"2 (0, 4)"
same,inhibition at 30 µM,[6]; Homo sapiens,99.8%
same,Mean No. of Colonies/10^5 Cells,[7]; 30 μM,"838 (600, 1076)"
same,inhibition at 30 µM,[7]; Homo sapiens,0%
same,cell layers of epidermis,[8],1-2 cell layers
same,diabetes incidence,"[9]; 20 mg/kg daily, till 18 wks of age",56%
same,age at which mice started to develop diabetes,"[9]; 50 mg/kg daily from 5 wks, control 13 wks",22 wks
same,diabetes incidence,"[9]; 50 mg/kg daily, 5 to 25 wks of age, at 25 wks",18%
same,diabetes incidence,"[9]; 100 mg/kg, 'the first treatment', at 25 wks of age, p=0.007",9%
same,diabetes incidence,"[9]; 100 mg/kg, 'the later one', at 25 wks of age, p=0.025",18%
same,age at which diabetes started,"[9]; 100 mg/kg, short course wks 5 to 9",10 wks
same,diabetes incidence,"[9]; 100 mg/kg, short course wks 5 to 9, by 25 wks of age",83%
same,Insulitis score,"[9]; 100 mg/kg, treated from 5-25 wks of age, controls 1.43±0.15",0.86±0.12
same,Insulitis score,"[9]; 100 mg/kg, treated from 10-25 wks of age",1.42±0.24
